Results from article PMC10516623 (2023).

What was measured:
[1] = test system: P1x_A14C/C26U (DNA:RNA, riboswitch, nucleotides 1-52 of strand 1 RNA, 53-70 DNA; strand 2 DNA) GAUACCUGUCACACCGGCUUCCUGGUGUGACGAGGUGACCUCAGUGGAGCAAACCGCTGCCGTCGCTCCG/CGGAGCGACGGCAGCGGT; test: smFRET titration, two-state isotherm (pre-folded); conditions: 100 mM KCl, 2 mM MgCl2, 40 mM HEPES pH 7.5, immobilised RNA
[2] = test system: T_G16P (DNA:RNA, riboswitch, purine (adenine lacking N6) at 16 (replaces G, written as G) of strand 1; nucleotides 1-52 RNA, 53-70 DNA; strand 2 DNA) GAUACCUGUCACAACGGCUUCCUGGCGUGACGAGGUGACCUCAGUGGAGCAAACCGCTGCCGTCGCTCCG/CGGAGCGACGGCAGCGGT; test: smFRET titration, two-state isotherm (pre-folded); conditions: 100 mM KCl, 2 mM MgCl2, 40 mM HEPES pH 7.5, immobilised RNA
[3] = test system: P1x_A14P (DNA:RNA, riboswitch, purine (adenine lacking N6) at 14 (replaces A) of strand 1; nucleotides 1-52 RNA, 53-70 DNA; strand 2 DNA) GAUACCUGUCACAACGGCUUCCUGGCGUGACGAGGUGACCUCAGUGGAGCAAACCGCTGCCGTCGCTCCG/CGGAGCGACGGCAGCGGT; test: smFRET titration, two-state isotherm (pre-folded); conditions: 100 mM KCl, 2 mM MgCl2, 40 mM HEPES pH 7.5, immobilised RNA
[4] = test system: PK_C18A/G49U/C50U (DNA:RNA, riboswitch, nucleotides 1-52 of strand 1 RNA, 53-70 DNA; strand 2 DNA) GAUACCUGUCACAACGGAUUCCUGGCGUGACGAGGUGACCUCAGUGGAUUAAACCGCTGCCGTCGCTCCG/CGGAGCGACGGCAGCGGT; test: smFRET titration, two-state isotherm (pre-folded); conditions: 100 mM KCl, 2 mM MgCl2, 40 mM HEPES pH 7.5, immobilised RNA
[5] = test system: Wild-typed SAM/SAH riboswitch (Cy3-U20, 3' DNA extension, annealed to anchor DNA) (DNA:RNA, riboswitch, nucleotides 1-52 of strand 1 RNA, 53-70 DNA; strand 2 DNA) GAUACCUGUCACAACGGCUUCCUGGCGUGACGAGGUGACCUCAGUGGAGCAAACCGCTGCCGTCGCTCCG/CGGAGCGACGGCAGCGGT; test: smFRET titration, two-state isotherm (pre-folded); conditions: 100 mM KCl, 2 mM MgCl2, 40 mM HEPES pH 7.5, immobilised RNA, text b38 gives 10 μM
[6] = test system: P1x_C26Z (DNA:RNA, riboswitch, zebularine at 26 (replaces C) of strand 1; nucleotides 1-52 RNA, 53-70 DNA; strand 2 DNA) GAUACCUGUCACAACGGCUUCCUGGCGUGACGAGGUGACCUCAGUGGAGCAAACCGCTGCCGTCGCTCCG/CGGAGCGACGGCAGCGGT; test: smFRET titration, two-state isotherm (pre-folded); conditions: 100 mM KCl, 2 mM MgCl2, 40 mM HEPES pH 7.5, immobilised RNA, text b44 gives 41 μM
[7] = test system: Wild-typed SAM/SAH riboswitch (Cy3-U20, 3' DNA extension, annealed to anchor DNA) (DNA:RNA, riboswitch, nucleotides 1-52 of strand 1 RNA, 53-70 DNA; strand 2 DNA) GAUACCUGUCACAACGGCUUCCUGGCGUGACGAGGUGACCUCAGUGGAGCAAACCGCTGCCGTCGCTCCG/CGGAGCGACGGCAGCGGT; test: smFRET vectorial folding (Rep-X unwinding), two-state isotherm; conditions: 100 mM KCl, 2 mM MgCl2, 40 mM HEPES pH 7.5, 2 mM ATP, RNA released from cDNA heteroduplex, non-equilibrium

In the case of `C[S+](CC[C@H](N)C(=O)O)C[C@H]1O[C@@H](n2cnc3c(N)ncnc32)[C@H](O)[C@@H]1O` (stereo partly shown), the Kd [1] is reported as 593 µM, the Kd [2] is reported as 607 µM and the Kd [3] is reported as 61 µM. For the same compound, the Kd [4] was greater than 1000 µM, the Kd [5] was 11 µM and the Kd [6] was 42 µM. The “apparent Kd” value [7] was 108 µM.
